Source: patent publication US9765101B2, “Organo-arsenoxide compounds and use thereof” (NewSouth Innovations Pty Limited, priority 2006, dated 2017)
Values joined by “and” are separate entries in the source; they are usually repeats but may differ in a detail not shown here. Equal values may be shown once. “Also recorded” adds a separate entry of the source.

Experiments:
[1] = tested on: organic anion transporting polypeptide (OATP); test: OATP studies with inhibitor DIDS in BAE cells; format: cell-based, bovine
Description: 750,000 BAE cells were seeded in 6 well plates containing DMEM with 10% fetal calf serum and allowed to adhere overnight. Cells were pretreated or not with 500 μM 4,4′-diisothiocyanostilbene-2,2′-disulfonic acid (DIDS) for 30 min and then incubated with 20 μM (S)-Penicillamine arsenoxide for 2 h at 37° C. and 5% CO2. Cells were then washed twice with ice-cold PBS and lysed with 70% nitric acid. Cellular arsenic levels were determined by ICPMS. 5000 BAE cells were seeded in 96 well plates containing DMEM with 10% fetal calf serum and allowed to adhere overnight. Cells were pretreated or not with 300 μM DIDS for […] and then incubated with 1.5 μM (S)-Penicillamine arsenoxide for 24 h at 37° C. and 5% CO2. Cell viability was determined using MTT.

[2] = tested on: BAE cells; test: BAE cell proliferation assay (MTT, 72 h); format: cell-based, bovine
Description: (§1) BAE cells were from Cell Applications, San Diego, Calif. and BxPC-3, HT1080, LLC, PANC-1, MCF-7, HCT116 and K562 cells were from ATCC, Bethesda, Md. NB4 and MDCK2 cells were from Shane Supple (Kanematsu Laboratories, Royal Prince Alfred Hospital, Sydney, Australia) and P. Borst (The Netherlands Cancer Institute, Amsterdam, The Netherlands). BAE, HT1080, Panc-1, MCF-7, HCT116, MDCK2 and LLC cells were cultured in DMEM. NB4, K562 and BxPC-3 cells were cultured in RPMI medium. The cells were supplemented with 10% foetal calf serum (FBS), 2 mM L-glutamine, and 1 U·mL-1 penicillin/streptomycin. Cell culture plasticware was from Techno Plastic Products (Trasadingen, Switzerland). All other cell culture reagents were from Gibco (Gaithersburg, Md.).
(§2) Adherent cells were allowed to adhere overnight.

[3] = tested on: MRP1/2; test: Effect of MRP1/2 inhibitors 4H10 and MK-571 on accumulation and anti-proliferative activity in BAE cells
Description: The data points and error bars are the mean±SD of quadruplicate determinations and is representative of two experiments. […] The MRP inhibitors were incubated for 30 min with the cells prior to incubation with (S)-Penicillamine-arsenoxide for 72 h. The data points and error bars are the mean±SD of triplicate determinations. *** is p<0.001, ** is p<0.01
BAE, NB4, K562, MDCK2, HT1080, LLC, HCT116, Panc-1, MCF-7 and BxPC-3 cells were seeded at a density of 1.5×10^3, 3×10^3, 4×10^3, 5×10^2, 2×10^3, 5×10^2, 5×10^2, 6×10^3, 6×10^3 and 1×10^4 cells per well, respectively, into 96-well plates. Adherent cells were allowed to adhere overnight. They were then cultured for 72 h in medium containing 10% fetal calf serum and (S)-Penicillamine-arsenoxide. Viable cells were determined by incubating cells with the tetrazolium salt MTT (Sigma, St. Louis, Mo.), which is metabolized by viable cells to form insoluble purple formazan crystals. DMSO was added to lyse cells, the contents of the wells were homogenized and the absorbance measured at 550 nm. Cell number in the untreated control was normalized as 100%, and viable cell number for all treatments was expressed as percentage of control. The cytotoxic effects of (S)-Penicillamine-arsenoxide were assayed by flow cytometry with propidium iodide. BAE cells were seeded at a density of 5×10^4 cells per well into 12-well plates, allowed to adhere overnight, then treated for 48 h with GSAO. […] The combined cells were pelleted, resuspended in 0.5 mL serum-free medium containing 1 μg·mL^−1 propidium iodide (Molecular Probes, Eugene, Oreg.) and analysed by flow cytometry.
BAE cells were seeded at a density of 1.5×10^6 cells in Petri dishes and allowed to adhere overnight. Cells were incubated with 50 μM (S)-Penicillamine-arsenoxide at discrete times for up to 2 h at 37° C. and then washed three times with ice-cold PBS. The washed cells were lysed in 1 mL of 70% w/w nitric acid. […] Samples were diluted 10-fold and analysed for arsenic atoms using an Elan 6100 Inductively Coupled Plasma Spectrometer (Perkin Elmer Sciex Instruments, Shelton, Conn.).

[4] = tested on: PANC-1 cells (pancreatic carcinoma); test: PANC-1 cell proliferation assay (MTT, 72 h); format: cell-based; conditions: PANC-1, human pancreatic carcinoma; read-out: IC50 for proliferation arrest
Description: as §1, §2

[5] = tested on: MCF-7 cells (mammary carcinoma); test: MCF-7 cell proliferation assay (MTT, 72 h); format: cell-based; conditions: MCF-7, human mammary carcinoma; read-out: IC50 for proliferation arrest
Description: as §1, §2

[6] = tested on: HCT1116 cells (colorectal carcinoma); test: HCT116 cell proliferation assay (MTT, 72 h); format: cell-based; conditions: HCT1116, human colorectal carcinoma; read-out: IC50 for proliferation arrest
Description: as §1, §2

[7] = tested on: MDCKII cells over-expressing MRP3; conditions: MD/MRP3; 96 h; relative to IC50 of non-transfected parental cells
Description: (§3) Transfectants of the Madin-Darby canine kidney II (MDCKII) polarised epithelial cell line, over-expressing multidrug resistance-associated proteins (MRP) 1, 2 or 3, have been described (Evers et al., 2000; Kool et al., 1999), as have the MEF/MDR1 clone H4 over-expressing human MDR1 or BCRP (Dilda et al., 2005b). Cells were grown and maintained as adherent monolayers in DMEM containing 10% calf serum (Cosmic™, Hyclone, Tauranga, New Zealand), 100 μg·mL^−1 penicillin and 60 μg·mL^−1 streptomycin. Cytotoxicity assays were performed as described previously (Allen et al., 1999).
(§4) Mammalian cells over-expressing MRP1, 2, 3 or 6, or MDR1 or BCRP were tested for resistance to (S)-Penicillamine-arsenoxide. MRP1, MRP2 or MRP3 was over-expressed in the canine kidney epithelial MDCKII cell line, while MRP6, MDR1 or BCRP was over-expressed in the murine embryo fibroblast MEF3.8 line. Cells were exposed to the indicated concentrations of (S)-Penicillamine-arsenoxide for 96 h and the number of viable cells measured and expressed relative to the number of untreated cells. Resistance factor is calculated relative to the (S)-Penicillamine arsenoxide IC50 for proliferation arrest of non-transfected parental cells.

[8] = tested on: MEF3.8 cells over-expressing BCRP; conditions: MEF/BCRP; 96 h; relative to IC50 of non-transfected parental cells
Description: as §3, §4

[9] = tested on: MEF3.8 cells over-expressing MRP6; conditions: MEF/MRP6; 96 h; relative to IC50 of non-transfected parental cells
Description: as §3, §4

[10] = tested on: MDCKII cells over-expressing MRP2; conditions: MD/MRP2; 96 h; relative to IC50 of non-transfected parental cells
Description: as §3, §4

[11] = tested on: MDCKII cells over-expressing MRP1; conditions: MD/MRP1; 96 h; relative to IC50 of non-transfected parental cells
Description: as §3, §4

[12] = tested on: MEF3.8 cells over-expressing MDR1; conditions: MEF/MDR1; 96 h; relative to IC50 of non-transfected parental cells
Description: as §3, §4

[13] = tested on: LLC cells (lung carcinoma); test: LLC cell proliferation assay (MTT, 72 h); format: cell-based, human; conditions: mouse Lewis lung carcinoma, read-out: IC50 for proliferation arrest
Description: as §1, §2

[14] = tested on: NB4 cells (acute promyelocytic leukaemia); test: NB4 cell proliferation assay (MTT, 72 h); format: cell-based, human
Description: as §1, §2

[15] = tested on: isolated rat liver mitochondria; test: Mitochondrial swelling assay (mitochondrial permeability transition); format: biochemical; conditions: 100 μM
Description: Mitochondria were isolated from the livers of ˜250 g male Wistar rats using differential centrifugation as previously described (Dilda et al., 2005a; Don et al., 2003). The final mitochondrial pellet was resuspended in 3 mM HEPES-KOH, pH 7.0 buffer containing 213 mM mannitol, 71 mM sucrose and 10 mM sodium succinate at a concentration of 30 mg of protein per mL. Mitochondrial permeability transition induction was assessed spectrophotometrically by suspending the liver mitochondria at 0.5 mg of protein per mL at 25° C. in 3 mM HEPES-KOH, pH 7.0 buffer containing 75 mM mannitol, 250 mM sucrose, 10 mM sodium succinate, and 2 μM rotenone. Swelling was measured by monitoring the associated decrease in light scattering at 520 nm using a SpectraMax Plus microplate reader (Molecular Devices, Palo Alto, Calif.).

[16] = tested on: BAE cells; test: BAE cell viability / cytotoxicity (propidium iodide flow cytometry); format: cell-based, bovine; conditions: read-out: IC50 for loss of viability
From the text: as §2

[17] = tested on: BAE cells; test: Accumulation of arsenical in BAE cells (cytosolic arsenic by inductively coupled plasma spectrometry); format: cell-based, bovine; conditions: 50 μM
Description: BAE cells were seeded at a density of 1.5×10^6 cells in Petri dishes and allowed to adhere overnight. Cells were incubated with 50 μM (S)-Penicillamine-arsenoxide at discrete times for up to 2 h at 37° C. and then washed three times with ice-cold PBS. The washed cells were lysed in 1 mL of 70% w/w nitric acid. Petri dishes were then washed twice with 1 mL of PBS and kept at 4° C. until use. Samples were diluted 10-fold and analysed for arsenic atoms using an Elan 6100 Inductively Coupled Plasma Spectrometer (Perkin Elmer Sciex Instruments, Shelton, Conn.).

Compound: CC(C)(SCC(=O)Nc1ccc([As](O)O)cc1)[C@@H](N)C(=O)O [(S)-Penicillamine-arsenoxide, 4-(N—(S-penicillaminylacetyl)amino)phenylarsinous acid]
- effect of DIDS on anti-proliferative activity ([1]; 300 μM DIDS, then 1.5 μM compound 24 h): reduces its anti-proliferative activity
- effect of DIDS on uptake ([1]; 500 μM DIDS 30 min, then 20 μM compound 2 h): inhibits (S)-Penicillamine arsenoxide uptake
- times more effective than GSAO at blocking proliferation and reducing the viability of endothelial cells [2]: ~25 times
- IC50 ([2]; 72 h, read-out: IC50 for proliferation arrest): 0.4 µM and 0.43 µM
- substrate status for MRP1/2 [3]: substrate for MRP1/2
- anti-proliferative effect in presence of MRP1/2 inhibitors ([3]; 0.3 μM compound, 4H10 2 μM or MK-571 15 μM, 72 h): more potent anti-proliferative effect
- accumulation in presence of MRP1/2 inhibitors 4H10 and MK-571 ([3]; 50 μM compound, 4H10 5 μM or MK-571 25 μM): More (S)-Penicillamine-arsenoxide accumulated in BAE cells
- IC50 [4]: 6.5 µM
- IC50 [5]: 9 µM
- IC50 [6]: 6 µM
- Resistance Factor [7]: 0.8
- Resistance Factor [8]: 1.1
- Resistance Factor [9]: 1.3
- Resistance Factor [10]: 4.6
- Resistance Factor [11]: 3.7
- Resistance Factor [12]: 1.2
- IC50 [13]: 5 µM
- IC50 ([14]; NB4, human acute promyelocytic leukaemia, read-out: IC50 for proliferation arrest): 0.7 µM
- effects on APL cells compared to arsenic trioxide ([14]; NB4 cells, 72 h): equivalent to arsenic trioxide; also recorded: as good an inhibitor of APL cell proliferation as arsenic trioxide
- time for half-maximal swelling of isolated mitochondria, times faster compared to GSAO [15]: approximately 4 times
- IC50 [16]: 3.5 µM
- initial rate of accumulation [17]: 69 pmol per 10^6 cells per min
